Reference: patent publication US6893821B2, “Agents that modulate DNA-PK activity and methods of use thereof” (The Regents of the University of California, priority 2000, dated 2005)

Legend:
[1] = test system: bone marrow derived macrophages (BMDM); experiment: IL-6 and IL-12 levels in BMDM culture supernatants by ELISA; assay type: cell-based, mice
Experimental: Ku70^−/− and Ku80^−/− mice and their wild-type (wt) control on the 129 genetic background were generated by Dr. G. Li and bred at Memorial Sloan-Kettering Cancer Center (MSKCC), New York, N.Y. BMDM from wt, Ku70^−/− and Ku80^−/− mice (MSKCC) were prepared as was previously published (Martin-Orozco et al. (1999) Int. Immunol. 11:1111), and maintained in DMEM with 10% FBS, antibiotics and 20% L-cell medium and cultured for about 10 days to allow them to mature. BMDM were seeded (2.5×10^5/well in triplicate) on 96-well plates and treated with LPS (10 μg/ml), ISS-ODN (5 μg/ml) or M-ODN (5 μg/ml).
BMDM (2.5×10^5/well) from wt, or Ku70^−/− and Ku80^−/− mice were treated with LPS (1 μg/ml), ISS-ODN (5 μg/ml) or M-ODN (5 μg/ml) for 24 hours. IL-6 (A) or IL-12 (B) levels in the supernatants were determined by ELISA. Results are means±S.D, of 5 separate experiments for wt and Ku70^−/− and 3 separate experiments for Ku80^−/− mice. (C) BMDM were incubated with LPS (10 μg/ml) or ISS-ODN (5 μg/ml) for 6.5 hours. Total RNA was isolated and analyzed for the presence of IL-6, IL-12 and GAPDH messages by a Northern blot assay, as described in Example 1. Results are means±S.D. of 5 separate experiments for wt and Ku70^−/− and 3 separate experiments for Ku80^−/− mice.
DNA-PKcs^−/− and their wt control mice on the 129 genetic background were generated by Dr. G. C. Li and bred at Memorial Sloan-Kettering Cancer Center, New York, N.Y. IKKβ^−/− Tnfr1^−/− mice were generated by Drs. Z-W Li and Karin M. ATM^−/− mice on the C57BL/6 background were generated and bred by Dr. Y. Xu (UCSD) as was previously described (Xu et al.(1996) Genes Dev. 10:2411-2422) while their wild-type (wt) control were purchased from Jackson Laboratories (Bar Harbor, Me.). BMDMs from wt, DNA-PKcs^−/− mice, IKKβ^−/− Tnfr1^−/− and ATM^−/− mice were prepared as was previously published (Martin-Orozco et al. (1999) Intl. Immunol. 11:1111-1118), maintained in DMEM with 10% FBS, antibiotics and 20% L-cell medium and cultured for 7-10 days to allow them to mature. Prior to use BMDM were seeded (2.5×10^5/well in triplicate) in 96-well plates and than treated with LPS (1 μg/ml), ISS-ODN (5 μg/ml) or M-ODN (5 μg/ml), po-ISS-ODN (10 μg/ml) or po-ds-ISS-ODN (10 μg/ml), LPS-free, ultra pure bacterial DNA (E. coli, Sigma) (15 μg/ml) or methylated bacterial DNA or LPS-free, ultra pure calf thymus DNA (Sigma) (15 μg/ml). Methylation of bacterial DNA was performed by SssI methylase (Biolab, Boston, Mass.) (15 μg/ml) following manufacturer's instruction. Where indicated the PI3K inhibitor wortmannin (Wm), at various concentrations, was added to ISS-ODN or LPS stimulated BMDMs. After 24 hours in culture, the supernatants were collected and assayed for IL-6 and IL-12 levels by ELISA kits (PharMingen, San Diego, Calif.).

DNA-PK = molecular target: T1, DNA-PK (Homo sapiens, UniProt P12956+P13010+P78527); experiment: In vitro DNA-PK phosphorylation assay (affinity-purified DNA-PK, GST-p53 (1-70) substrate); assay type: biochemical; conditions: 30° C., 30 minutes; ps-ss ODNs 0-1, po-ISS-ODN 20-100, po-ds-ISS-ODN 0-10, genomic DNAs 1-5 ng/reaction
T1 construct: purchased Promega
Experimental: The in vitro DNA-PK phosphorylation assay was performed according to Hammarsten et al. (2000), supra, with modification. Briefly, affinity-purified DNA-PK (Promega, Mo.) was incubated with various DNA preparations (described below), 0.5 μg of GST-p53 (1-70) and 3.3 μCi of γ-^32p-ATP in a 20 μl reaction buffer (10 mM Tris-Cl, 5 mM MgCl2, 0.3 mM EDTA and 10 μM ATP) at 30° C. for 30 minutes. The reaction was stopped by addition of 4× loading buffer. The samples were boiled, loaded on 9% SDS-PAGE, transferred onto a PVDF membrane and visualized by autoradiography.
The ODNs (ps-ss) used include an ISS-ODN with an active CpG motif (AACGTT), a methylated ISS-ODN at the ^5C of the CpG dinucleotide (AA*CGTT) and various control ODNs. These ODNs were incubated at concentrations of 0, 0.1, 0.3, or 1 ng/reaction. The po-ISS-ODN was incubated at concentration of 20, 50 or 100 ng/reaction. The po-ds-ISS-ODN was incubated at concentration of 0, 0.5, 1, 2, 5 or 10 ng/reaction. The bacterial or calf thymus DNAs were each incubated at concentration of 1, 2 or 5 ng/reaction. Electrophoretic gel mobility shift assay (EMSA) was performed as previously described. Chu et al. (1999) Immunity 11:721-731; and Li et al., 1999, supra). In vitro IKK kinase assays were performed using purified IKK derived from Sf9 insect cell lysates as was previously described. Zandi et al. (1998) Science 281:1360-1363.

DNA-PK activity in vitro (phosphorylation of the N-terminal portion of p53) (DNA-PK): stimulated DNA-PK activity
Substance: 5′-TGACTGTGAACGTTCGAGATGA-3′ [ISS-ODN]
IL-6 and IL-12 induction ([1]; ATM-deficient BMDM): normal induction | IL-6 and IL-12 induction ([1]; DNA-PKcs-deficient BMDM in comparison to wt): Very low levels | IL-6 and IL-12 induction ([1]; IKKβ-/- Tnfr-/- BMDM): significantly reduced | IL-6 and IL-12 secretion ([1]; Ku70-/- and Ku80-/- BMDM as compared to wt, 24 hours): very low levels
